Results published in ChEMBL document CHEMBL2073861, “Molecular identification of a novel carnitine transporter specific to human testis. Insights into the mechanism of carnitine recognition” (J Biol Chem, 2002).

What was measured:
[1] = biological target: T1, Organic cation/carnitine transporter 2 (Homo sapiens, UniProt O76082); test: TP_TRANSPORTER: inhibition of carnitine uptake by Carnitine-related compound-2A at 20uM in Xenopus laevis oocytes; type: functional, cell-based, Oocyte; design: scale not given: the % may be the effect or the level left; details: probe carnitine, read-out: Activity
T1 sequence (O76082 whole entry): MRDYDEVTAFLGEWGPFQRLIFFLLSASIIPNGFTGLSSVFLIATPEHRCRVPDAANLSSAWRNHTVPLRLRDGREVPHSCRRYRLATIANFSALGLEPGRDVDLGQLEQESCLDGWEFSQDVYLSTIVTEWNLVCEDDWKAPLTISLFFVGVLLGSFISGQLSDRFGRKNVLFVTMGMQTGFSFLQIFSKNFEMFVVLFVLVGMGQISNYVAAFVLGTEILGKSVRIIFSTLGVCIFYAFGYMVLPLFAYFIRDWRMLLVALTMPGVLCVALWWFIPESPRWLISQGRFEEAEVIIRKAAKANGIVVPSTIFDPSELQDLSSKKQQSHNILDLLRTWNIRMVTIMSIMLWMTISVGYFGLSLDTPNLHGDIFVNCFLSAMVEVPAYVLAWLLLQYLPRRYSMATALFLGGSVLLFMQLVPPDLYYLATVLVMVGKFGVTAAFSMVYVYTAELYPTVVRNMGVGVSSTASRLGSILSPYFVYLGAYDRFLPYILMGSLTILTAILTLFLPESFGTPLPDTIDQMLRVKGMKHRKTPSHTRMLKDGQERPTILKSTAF

[2] = biological target: Solute carrier family 22 member 16 (Homo sapiens) (UniProt Q86VW1); test: TP_TRANSPORTER: inhibition of carnitine uptake by Carnitine-related compound-2A at 20uM in Xenopus laevis oocytes; design: scale not given: the % may be the effect or the level left; details: Oocyte
[3] = biological target: T1, Organic cation/carnitine transporter 2; test: TP_TRANSPORTER: inhibition of carnitine transport by Carnitine-related compound-7A at 20uM in Xenopus laevis oocytes; type: functional, cell-based, Oocyte; design: scale not given: the % may be the effect or the level left; details: probe carnitine, read-out: Activity
[4] = biological target: Solute carrier family 22 member 16 (Homo sapiens) (UniProt Q86VW1); test: TP_TRANSPORTER: inhibition of carnitine uptake by Carnitine-related compound-7A at 20uM in Xenopus laevis oocytes; design: scale not given: the % may be the effect or the level left; details: Oocyte
[5] = biological target: T1, Organic cation/carnitine transporter 2; test: TP_TRANSPORTER: inhibition of carnitine uptake by Carnitine-related compound-10A at 20uM in Xenopus laevis oocytes; type: functional, cell-based, Oocyte; design: scale not given: the % may be the effect or the level left; details: probe carnitine, read-out: Activity
[6] = biological target: Solute carrier family 22 member 16 (Homo sapiens) (UniProt Q86VW1); test: TP_TRANSPORTER: inhibition of carnitine uptake by Carnitine-related compound-10A at 20uM in Xenopus laevis oocytes; design: scale not given: the % may be the effect or the level left; details: Oocyte
[7] = biological target: Solute carrier family 22 member 16 (Homo sapiens) (UniProt Q86VW1); test: TP_TRANSPORTER: inhibition of carnitine uptake by Carnitine-related compound-5A at 20uM in Xenopus laevis oocytes; design: scale not given: the % may be the effect or the level left; details: Oocyte
[8] = biological target: T1, Organic cation/carnitine transporter 2; test: TP_TRANSPORTER: inhibition of carnitine uptake by Carnitine-related compound-5A at 20uM in Xenopus laevis oocytes; type: functional, cell-based, Oocyte; design: scale not given: the % may be the effect or the level left; details: probe carnitine, read-out: Activity
[9] = biological target: T1, Organic cation/carnitine transporter 2; test: TP_TRANSPORTER: inhibition of carnitine uptake by Carnitine-related compound-14 at 20uM in Xenopus laevis oocytes; type: functional, cell-based, Oocyte; design: scale not given: the % may be the effect or the level left; details: probe carnitine, read-out: Activity
[10] = biological target: Solute carrier family 22 member 16 (Homo sapiens) (UniProt Q86VW1); test: TP_TRANSPORTER: inhibition of carnitine uptake by Carnitine-related compound-12A at 20uM in Xenopus laevis oocytes; design: scale not given: the % may be the effect or the level left; details: Oocyte
[11] = biological target: Solute carrier family 22 member 16 (Homo sapiens) (UniProt Q86VW1); test: TP_TRANSPORTER: inhibition of carnitine uptake by Carnitine-related compound-3A at 20uM in Xenopus laevis oocytes; design: scale not given: the % may be the effect or the level left; details: Oocyte
[12] = biological target: T1, Organic cation/carnitine transporter 2; test: TP_TRANSPORTER: inhibition of carnitine transport by Carnitine-related compound-3A at 20uM in Xenopus laevis oocytes; type: functional, cell-based, Oocyte; design: scale not given: the % may be the effect or the level left; details: probe carnitine, read-out: Activity
[13] = biological target: Solute carrier family 22 member 16 (Homo sapiens) (UniProt Q86VW1); test: TP_TRANSPORTER: inhibition of carnitine uptake by Carnitine-related compound-17 at 20uM in Xenopus laevis oocytes; design: scale not given: the % may be the effect or the level left; details: Oocyte
[14] = biological target: T2, Solute carrier family 22 member 16 (Homo sapiens, UniProt Q86VW1); test: TP_TRANSPORTER: inhibition of carnitine transport by Octanoyl-carnitine at 5uM in Xenopus laevis oocytes; type: functional, cell-based; design: scale not given: the % may be the effect or the level left; details: oocyte
T2 sequence (Q86VW1 whole entry): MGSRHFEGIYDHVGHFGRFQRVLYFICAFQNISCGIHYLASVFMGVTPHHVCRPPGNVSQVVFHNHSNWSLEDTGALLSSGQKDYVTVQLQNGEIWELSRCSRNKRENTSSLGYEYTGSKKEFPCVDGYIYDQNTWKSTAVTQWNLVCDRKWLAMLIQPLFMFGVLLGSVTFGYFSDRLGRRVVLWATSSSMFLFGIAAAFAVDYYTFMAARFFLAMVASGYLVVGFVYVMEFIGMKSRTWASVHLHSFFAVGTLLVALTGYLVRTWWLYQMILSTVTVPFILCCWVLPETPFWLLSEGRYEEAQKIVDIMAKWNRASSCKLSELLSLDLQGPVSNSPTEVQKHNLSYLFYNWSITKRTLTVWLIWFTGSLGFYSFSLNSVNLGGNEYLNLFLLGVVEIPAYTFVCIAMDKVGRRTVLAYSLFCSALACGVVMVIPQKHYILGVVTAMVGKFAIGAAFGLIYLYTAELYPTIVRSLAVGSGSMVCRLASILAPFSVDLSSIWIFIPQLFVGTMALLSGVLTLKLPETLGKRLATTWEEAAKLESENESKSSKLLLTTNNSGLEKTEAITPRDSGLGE

[15] = biological target: T1, Organic cation/carnitine transporter 2; test: TP_TRANSPORTER: inhibition of carnitine uptake by Carnitine-related compound-13 at 20uM in Xenopus laevis oocytes; type: functional, cell-based, Oocyte; design: scale not given: the % may be the effect or the level left; details: probe carnitine, read-out: Activity
[16] = biological target: Solute carrier family 22 member 16 (Homo sapiens) (UniProt Q86VW1); test: TP_TRANSPORTER: inhibition of carnitine uptake by Carnitine-related compound-13 at 20uM in Xenopus laevis oocytes; design: scale not given: the % may be the effect or the level left; details: Oocyte
[17] = biological target: Solute carrier family 22 member 16 (Homo sapiens) (UniProt Q86VW1); test: TP_TRANSPORTER: inhibition of carnitine uptake by Carnitine-related compound-9A at 20uM in Xenopus laevis oocytes; design: scale not given: the % may be the effect or the level left; details: Oocyte
[18] = biological target: T1, Organic cation/carnitine transporter 2; test: TP_TRANSPORTER: inhibition of carnitine transport by Carnitine-related compound-9A at 20uM in Xenopus laevis oocytes; type: functional, cell-based, Oocyte; design: scale not given: the % may be the effect or the level left; details: probe carnitine, read-out: Activity
[19] = biological target: T1, Organic cation/carnitine transporter 2; test: TP_TRANSPORTER: inhibition of carnitine transport by Carnitine-related compound-8A at 20uM in Xenopus laevis oocytes; type: functional, cell-based, Oocyte; design: scale not given: the % may be the effect or the level left; details: probe carnitine, read-out: Activity
[20] = biological target: Solute carrier family 22 member 16 (Homo sapiens) (UniProt Q86VW1); test: TP_TRANSPORTER: inhibition of carnitine uptake by Carnitine-related compound-8A at 20uM in Xenopus laevis oocytes; design: scale not given: the % may be the effect or the level left; details: Oocyte
[21] = biological target: Solute carrier family 22 member 16 (Homo sapiens) (UniProt Q86VW1); test: TP_TRANSPORTER: inhibition of carnitine uptake by Carnitine-related compound-6A at 20uM in Xenopus laevis oocytes; design: scale not given: the % may be the effect or the level left; details: Oocyte
[22] = biological target: T1, Organic cation/carnitine transporter 2; test: TP_TRANSPORTER: inhibition of carnitine uptake by Carnitine-related compound-4A at 20uM in Xenopus laevis oocytes; type: functional, cell-based; design: scale not given: the % may be the effect or the level left; details: oocyte
[23] = biological target: Solute carrier family 22 member 16 (Homo sapiens) (UniProt Q86VW1); test: TP_TRANSPORTER: inhibition of carnitine uptake by Carnitine-related compound-4A at 20uM in Xenopus laevis oocytes; design: scale not given: the % may be the effect or the level left; details: Oocyte
[24] = biological target: Solute carrier family 22 member 16 (Homo sapiens) (UniProt Q86VW1); test: TP_TRANSPORTER: inhibition of carnitine uptake by Carnitine-related compound-11A at 20uM in Xenopus laevis oocytes; design: scale not given: the % may be the effect or the level left; details: Oocyte
[25] = biological target: T2, Solute carrier family 22 member 16; test: TP_TRANSPORTER: inhibition of carnitine in Xenopus laevis oocytes; type: functional, cell-based, Oocyte
[26] = biological target: T2, Solute carrier family 22 member 16; test: TP_TRANSPORTER: inhibition of carnitine transport by Acetyl-L-carnitine at 5uM in Xenopus laevis oocytes; type: functional, cell-based, Oocyte; design: scale not given: the % may be the effect or the level left; details: probe carnitine, read-out: Activity
[27] = biological target: Solute carrier family 22 member 16 (Homo sapiens) (UniProt Q86VW1); test: TP_TRANSPORTER: inhibition of carnitine uptake by Carnitine-related compound-18 at 20uM in Xenopus laevis oocytes; design: scale not given: the % may be the effect or the level left; details: Oocyte
[28] = substrate: C[N+](C)(C)CC(O)CC(=O)[O-]; test: TP_TRANSPORTER: uptake in Xenopus laevis oocytes; type: functional, cell-based, Oocyte

Molecule: C[N+](C)(C)CCCCC(=O)O
- activity at 20 µM [1]: 40%
- Activity [2]: 20%

Molecule: C[N+](C)(C)CCCCCC(=O)O
- activity at 20 µM [3]: 35%
- Activity [4]: 20%

Molecule: C[N+](C)(C)CCCCCCC(=O)O
- activity at 20 µM [5]: 50%
- Activity [6]: 40%

Molecule: CC[N+](CCCCC(=O)O)(C(C)C)C(C)C
- Activity [7]: 20%
- activity at 20 µM [8]: 40%

Molecule: CC[N+](CC)(CC)CC(O)CC(=O)[O-] (stereo not drawn)
- activity at 20 µM [9]: 70%

Molecule: CC[N+](CC)(CC)CCCCCCC(=O)O
- Activity [10]: 50%

Molecule: CC[N+](C)(CC)CCCCC(=O)O
- Activity [11]: 20%
- activity at 20 µM [12]: 20%

Molecule: CC[N+](C)(CC)CC(O)CCC(=O)[O-] (stereo not drawn)
- Activity [13]: 20%

Molecule: CCCCCCCC(=O)OC(CC(=O)O)C[N+](C)(C)C.[Cl-] (stereo not drawn) [Octanoyl-carnitine]
- Activity [14]: 70%

Molecule: C[N+](C)(C)CC(O)CC(=O)[O-] (stereo not drawn) [CARNITINE]
- activity at 20 µM [15]: 40%
- Activity [16]: 20%

Molecule: CC[N+](CC)(CC)CCCCCC(=O)O
- Activity [17]: 20%
- activity at 20 µM [18]: 30%

Molecule: CC[N+](C)(CC)CCCCCC(=O)O
- activity at 20 µM [19]: 20%
- Activity [20]: 30%

Molecule: CCC[N+](CCC)(CCC)CCCCC(=O)O
- Activity [21]: 70%

Molecule: CC[N+](CC)(CC)CCCCC(=O)O.[Cl-]
- Activity [22]: 50%
- Activity [23]: 20%

Molecule: CC[N+](C)(CC)CCCCCCC(=O)O
- Activity [24]: 50%

Molecule: C[N+](C)(C)C[C@@H](O)CC(=O)[O-] [D-CARNITINE]
- Ki [25]: 30 µM

Molecule: CC(=O)O[C@H](CC(=O)[O-])C[N+](C)(C)C [ACETYLCARNITINE]
- activity at 5 µM [26]: 70%

Molecule: CC[N+](CC)(CC)CC(O)CCC(=O)[O-] (stereo not drawn)
- Activity [27]: 20%

B1: Solute carrier family 22 member 16 (Homo sapiens) (protein)
chain: MGSRHFEGIYDHVGHFGRFQRVLYFICAFQNISCGIHYLASVFMGVTPHHVCRPPGNVSQVVFHNHSNWSLEDTGALLSSGQKDYVTVQLQNGEIWELSRCSRNKRENTSSLGYEYTGSKKEFPCVDGYIYDQNTWKSTAVTQWNLVCDRKWLAMLIQPLFMFGVLLGSVTFGYFSDRLGRRVVLWATSSSMFLFGIAAAFAVDYYTFMAARFFLAMVASGYLVVGFVYVMEFIGMKSRTWASVHLHSFFAVGTLLVALTGYLVRTWWLYQMILSTVTVPFILCCWVLPETPFWLLSEGRYEEAQKIVDIMAKWNRASSCKLSELLSLDLQGPVSNSPTEVQKHNLSYLFYNWSITKRTLTVWLIWFTGSLGFYSFSLNSVNLGGNEYLNLFLLGVVEIPAYTFVCIAMDKVGRRTVLAYSLFCSALACGVVMVIPQKHYILGVVTAMVGKFAIGAAFGLIYLYTAELYPTIVRSLAVGSGSMVCRLASILAPFSVDLSSIWIFIPQLFVGTMALLSGVLTLKLPETLGKRLATTWEEAAKLESENESKSSKLLLTTNNSGLEKTEAITPRDSGLGE
- Km [28]: 20 µM
